Paper PMC7180948, “New Insights into 4-Anilinoquinazolines as Inhibitors of Cardiac Troponin I–Interacting Kinase (TNNi3K)” (Molecules, 2020)

How the values were obtained:
Assay in all cases: biochemical
Parameters in all cases: KINOMEscan competition binding panel (Eurofins DiscoverX), single concentration, percent inhibition
Details in all cases: read-out: 15 at 1 µM % inhibition
[1] = biological target: T1, ABL1(H396P)-phosphorylated (Homo sapiens, UniProt P00519, H396P)
T1 construct: phosphorylated
Protocol: (§1) KinomeScan® Assay on 7 and 15 was performed as previously described by EuroFins DiscoverX [24]. GSK114 (7) and 15 were submitted for a KINOMEscan® assay to explore the selectivity profile across >400 human kinases at a compound concentration of 1 µM. […] GSK114 (7) is a narrow-spectrum TNNi3K inhibitor but has some potent off-targets including GAK which has been previously reported for this chemotype. […] If utilized together this set of compounds could be useful to investigate TNNi3K biology.

ALK = ALK (Homo sapiens, UniProt Q9UM73)
Protocol: as §1

BTK = BTK (Homo sapiens, UniProt Q06187)
Protocol: as §1

CDK9 = CDK9 (Homo sapiens, UniProt P50750)
Protocol: as §1

CDKL2 = CDKL2 (Homo sapiens, UniProt Q92772)
Protocol: as §1

CDKL3 = CDKL3 (Homo sapiens, UniProt Q8IVW4)
Protocol: as §1

CLK4 = CLK4 (Homo sapiens, UniProt Q9HAZ1)
Chain of CLK4 (Q9HAZ1 whole entry): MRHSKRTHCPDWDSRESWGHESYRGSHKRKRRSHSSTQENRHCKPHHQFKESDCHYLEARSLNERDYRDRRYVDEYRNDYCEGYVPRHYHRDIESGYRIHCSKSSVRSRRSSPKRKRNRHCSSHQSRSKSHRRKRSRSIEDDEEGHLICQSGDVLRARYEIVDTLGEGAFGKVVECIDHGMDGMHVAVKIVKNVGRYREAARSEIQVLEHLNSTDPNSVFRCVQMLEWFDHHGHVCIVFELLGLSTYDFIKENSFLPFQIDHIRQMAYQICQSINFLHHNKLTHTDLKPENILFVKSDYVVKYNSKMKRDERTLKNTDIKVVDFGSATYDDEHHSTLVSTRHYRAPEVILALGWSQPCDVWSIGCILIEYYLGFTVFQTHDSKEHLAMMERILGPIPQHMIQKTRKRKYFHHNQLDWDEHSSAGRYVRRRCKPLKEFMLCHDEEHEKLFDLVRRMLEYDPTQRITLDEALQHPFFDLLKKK
Protocol: as §1

CSNK1G2 = CSNK1G2 (Homo sapiens, UniProt P78368)
Chain of CSNK1G2 (P78368 whole entry): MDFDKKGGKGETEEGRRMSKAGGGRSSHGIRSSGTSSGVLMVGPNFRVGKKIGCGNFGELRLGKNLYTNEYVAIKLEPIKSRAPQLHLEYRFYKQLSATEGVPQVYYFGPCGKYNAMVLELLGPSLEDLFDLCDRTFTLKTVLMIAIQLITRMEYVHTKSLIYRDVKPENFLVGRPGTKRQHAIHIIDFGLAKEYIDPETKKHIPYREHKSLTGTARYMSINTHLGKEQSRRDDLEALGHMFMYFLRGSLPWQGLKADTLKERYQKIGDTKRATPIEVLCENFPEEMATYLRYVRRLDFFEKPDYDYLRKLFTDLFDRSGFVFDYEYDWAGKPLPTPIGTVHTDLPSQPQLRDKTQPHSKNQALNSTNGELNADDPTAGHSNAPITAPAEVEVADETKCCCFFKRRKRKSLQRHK
Protocol: as §1

CSNK2A2 = CSNK2A2 (Homo sapiens, UniProt P19784)
Chain of CSNK2A2 (P19784 whole entry): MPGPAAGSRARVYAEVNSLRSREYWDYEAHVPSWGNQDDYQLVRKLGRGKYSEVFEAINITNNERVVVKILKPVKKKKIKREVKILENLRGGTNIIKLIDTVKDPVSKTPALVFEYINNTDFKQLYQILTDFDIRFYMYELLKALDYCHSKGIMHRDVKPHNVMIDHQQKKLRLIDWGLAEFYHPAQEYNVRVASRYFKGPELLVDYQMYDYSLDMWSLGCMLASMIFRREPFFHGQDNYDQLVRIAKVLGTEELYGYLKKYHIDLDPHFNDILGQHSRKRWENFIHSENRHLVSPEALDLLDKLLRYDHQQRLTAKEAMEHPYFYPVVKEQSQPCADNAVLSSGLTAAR
Protocol: as §1

EIF2AK1 = EIF2AK1 (Homo sapiens, UniProt Q9BQI3)
Chain of EIF2AK1 (Q9BQI3 whole entry): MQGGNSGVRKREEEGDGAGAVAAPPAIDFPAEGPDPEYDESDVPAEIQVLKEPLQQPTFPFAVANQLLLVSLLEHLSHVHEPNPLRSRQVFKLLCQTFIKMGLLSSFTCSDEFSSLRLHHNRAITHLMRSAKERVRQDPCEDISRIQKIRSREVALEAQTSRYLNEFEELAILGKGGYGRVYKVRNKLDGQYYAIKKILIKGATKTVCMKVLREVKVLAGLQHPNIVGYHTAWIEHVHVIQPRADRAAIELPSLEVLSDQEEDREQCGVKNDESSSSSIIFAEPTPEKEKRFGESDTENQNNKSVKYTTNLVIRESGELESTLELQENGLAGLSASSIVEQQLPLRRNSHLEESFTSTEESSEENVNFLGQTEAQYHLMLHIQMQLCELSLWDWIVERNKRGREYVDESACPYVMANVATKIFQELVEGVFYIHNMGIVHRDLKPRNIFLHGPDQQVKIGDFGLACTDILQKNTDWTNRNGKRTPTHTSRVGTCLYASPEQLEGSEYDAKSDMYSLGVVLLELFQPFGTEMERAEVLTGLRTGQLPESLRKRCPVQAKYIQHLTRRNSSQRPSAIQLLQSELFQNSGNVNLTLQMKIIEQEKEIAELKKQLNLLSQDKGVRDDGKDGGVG
Protocol: as §1

EPHB2 = EPHB2 (Homo sapiens, UniProt P29323)
Protocol: as §1

EPHB4 = EPHB4 (Homo sapiens, UniProt P54760)
Chain of EPHB4 (P54760 whole entry): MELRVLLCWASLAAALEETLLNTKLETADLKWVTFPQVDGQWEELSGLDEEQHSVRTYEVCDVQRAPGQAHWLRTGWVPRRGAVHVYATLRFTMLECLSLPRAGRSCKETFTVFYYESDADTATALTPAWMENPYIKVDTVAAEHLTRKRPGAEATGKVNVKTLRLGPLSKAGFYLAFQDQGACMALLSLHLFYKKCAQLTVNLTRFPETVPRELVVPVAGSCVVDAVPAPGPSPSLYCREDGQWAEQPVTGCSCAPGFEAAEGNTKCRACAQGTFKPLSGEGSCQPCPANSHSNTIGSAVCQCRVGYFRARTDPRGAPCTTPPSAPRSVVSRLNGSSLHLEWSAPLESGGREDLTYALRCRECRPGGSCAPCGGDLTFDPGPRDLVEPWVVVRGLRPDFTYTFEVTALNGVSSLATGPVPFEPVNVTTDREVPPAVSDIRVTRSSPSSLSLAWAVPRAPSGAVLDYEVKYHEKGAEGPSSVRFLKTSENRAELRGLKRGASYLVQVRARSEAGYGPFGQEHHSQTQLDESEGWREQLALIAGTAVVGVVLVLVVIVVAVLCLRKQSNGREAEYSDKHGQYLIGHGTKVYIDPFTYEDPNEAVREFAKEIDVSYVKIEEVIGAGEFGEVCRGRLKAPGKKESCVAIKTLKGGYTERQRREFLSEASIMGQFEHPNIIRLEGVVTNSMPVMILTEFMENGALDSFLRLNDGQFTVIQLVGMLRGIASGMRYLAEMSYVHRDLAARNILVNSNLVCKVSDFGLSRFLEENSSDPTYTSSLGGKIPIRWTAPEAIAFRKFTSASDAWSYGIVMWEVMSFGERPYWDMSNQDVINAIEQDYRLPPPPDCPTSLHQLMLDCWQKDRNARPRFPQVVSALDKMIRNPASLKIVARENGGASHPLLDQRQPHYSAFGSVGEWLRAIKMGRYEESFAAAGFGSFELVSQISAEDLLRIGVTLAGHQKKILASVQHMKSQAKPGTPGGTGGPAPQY
Protocol: as §1

FES = FES (Homo sapiens, UniProt P07332)
Protocol: as §1

FLT4 = FLT4 (Homo sapiens, UniProt P35916)
Protocol: as §1

GCN2(Kin.Dom.2,S808G) = biological target: T2, GCN2(Kin.Dom.2,S808G) (Homo sapiens, UniProt Q9P2K8, S808G)
T2 construct: gene EIF2AK4; Kin.Dom.2
Protocol: as §1

HCK = HCK (Homo sapiens, UniProt P08631)
Protocol: as §1

KIT(V559D) = KIT(V559D) (Homo sapiens, UniProt P10721, V559D)
Protocol: as §1

LATS2 = LATS2 (Homo sapiens, UniProt Q9NRM7)
Protocol: as §1

MST1 = biological target: T3, MST1 (Homo sapiens, UniProt Q13043)
T3 construct: gene STK4
Protocol: as §1

MYO3B = MYO3B (Homo sapiens, UniProt Q8WXR4)
Chain of MYO3B (Q8WXR4 whole entry): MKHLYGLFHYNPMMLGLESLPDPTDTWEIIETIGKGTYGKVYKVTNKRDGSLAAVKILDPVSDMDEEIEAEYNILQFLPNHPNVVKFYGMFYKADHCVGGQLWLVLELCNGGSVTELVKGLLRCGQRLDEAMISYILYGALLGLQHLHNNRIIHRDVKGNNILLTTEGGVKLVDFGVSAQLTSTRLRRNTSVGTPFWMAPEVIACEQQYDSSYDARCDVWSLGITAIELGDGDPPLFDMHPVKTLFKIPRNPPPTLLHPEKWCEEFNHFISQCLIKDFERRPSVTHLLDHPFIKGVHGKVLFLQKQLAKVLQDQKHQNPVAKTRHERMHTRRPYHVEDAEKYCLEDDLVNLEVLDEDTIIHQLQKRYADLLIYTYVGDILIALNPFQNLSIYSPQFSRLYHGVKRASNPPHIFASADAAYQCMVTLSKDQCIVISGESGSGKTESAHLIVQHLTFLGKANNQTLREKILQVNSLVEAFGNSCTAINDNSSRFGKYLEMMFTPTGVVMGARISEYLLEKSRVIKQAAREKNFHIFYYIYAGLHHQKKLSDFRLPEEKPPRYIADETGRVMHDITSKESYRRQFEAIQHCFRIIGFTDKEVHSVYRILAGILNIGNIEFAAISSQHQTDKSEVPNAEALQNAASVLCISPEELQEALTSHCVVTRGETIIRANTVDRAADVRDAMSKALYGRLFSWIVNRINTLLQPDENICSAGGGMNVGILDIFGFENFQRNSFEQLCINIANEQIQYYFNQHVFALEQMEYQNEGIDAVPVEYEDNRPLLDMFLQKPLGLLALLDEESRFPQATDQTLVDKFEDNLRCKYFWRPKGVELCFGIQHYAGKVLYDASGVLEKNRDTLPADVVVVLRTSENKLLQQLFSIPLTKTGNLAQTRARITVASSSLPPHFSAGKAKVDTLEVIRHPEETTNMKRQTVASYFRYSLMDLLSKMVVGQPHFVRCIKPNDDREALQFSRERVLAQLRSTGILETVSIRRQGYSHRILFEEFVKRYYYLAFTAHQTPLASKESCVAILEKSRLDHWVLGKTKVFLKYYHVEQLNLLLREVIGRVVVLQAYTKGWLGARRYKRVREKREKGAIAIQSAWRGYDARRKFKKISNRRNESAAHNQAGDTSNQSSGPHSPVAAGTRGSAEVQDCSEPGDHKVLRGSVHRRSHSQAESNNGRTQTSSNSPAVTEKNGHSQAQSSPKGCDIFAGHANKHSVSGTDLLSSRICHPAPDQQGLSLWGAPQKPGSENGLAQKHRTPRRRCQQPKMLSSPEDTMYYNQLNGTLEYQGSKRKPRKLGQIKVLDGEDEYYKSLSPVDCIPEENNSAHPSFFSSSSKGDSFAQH
Protocol: as §1

PDPK1 = PDPK1 (Homo sapiens, UniProt O15530)
Protocol: as §1

PIK4CB = biological target: T4, PIK4CB (Homo sapiens, UniProt Q9UBF8)
T4 construct: gene PI4KB
T4 sequence (Q9UBF8 whole entry): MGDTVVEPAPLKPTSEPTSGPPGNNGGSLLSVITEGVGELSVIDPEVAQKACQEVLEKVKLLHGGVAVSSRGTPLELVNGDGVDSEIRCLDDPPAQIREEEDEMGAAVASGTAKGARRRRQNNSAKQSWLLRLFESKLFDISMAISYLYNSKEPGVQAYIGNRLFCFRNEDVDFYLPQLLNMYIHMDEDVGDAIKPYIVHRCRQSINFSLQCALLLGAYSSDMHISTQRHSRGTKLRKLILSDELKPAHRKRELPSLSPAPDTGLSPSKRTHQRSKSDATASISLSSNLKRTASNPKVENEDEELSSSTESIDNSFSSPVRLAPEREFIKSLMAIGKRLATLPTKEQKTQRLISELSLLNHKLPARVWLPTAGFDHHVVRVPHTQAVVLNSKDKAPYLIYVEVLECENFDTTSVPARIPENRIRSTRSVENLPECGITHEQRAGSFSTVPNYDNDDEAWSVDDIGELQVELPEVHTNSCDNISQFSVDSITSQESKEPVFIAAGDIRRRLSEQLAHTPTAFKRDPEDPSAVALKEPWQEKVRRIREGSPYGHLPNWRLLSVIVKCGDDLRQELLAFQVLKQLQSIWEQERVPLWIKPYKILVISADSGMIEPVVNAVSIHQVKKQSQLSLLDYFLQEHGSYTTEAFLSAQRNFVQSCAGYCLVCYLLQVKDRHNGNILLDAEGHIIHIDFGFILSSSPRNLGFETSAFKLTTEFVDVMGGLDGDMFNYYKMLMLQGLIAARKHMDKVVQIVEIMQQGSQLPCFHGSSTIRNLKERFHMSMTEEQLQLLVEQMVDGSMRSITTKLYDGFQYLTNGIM
Protocol: as §1

PIM1 = PIM1 (Homo sapiens, UniProt P11309)
Protocol: as §1

PKN1 = PKN1 (Homo sapiens, UniProt Q16512)
Protocol: as §1

- inhibition at 1 µM [1]: 0%
- inhibition at 1 µM (ALK): 10%
- inhibition at 1 µM (BTK): 26%
- inhibition at 1 µM (CDK9): 0%
- inhibition at 1 µM (CDKL2): 4%
- inhibition at 1 µM (CDKL3): 23%
- inhibition at 1 µM (CLK4): 5%
- inhibition at 1 µM (CSNK1G2): 0%
- inhibition at 1 µM (CSNK2A2): 14%
- inhibition at 1 µM (EIF2AK1): 4%
- inhibition at 1 µM (EPHB2): 2%
- inhibition at 1 µM (EPHB4): 0%
- inhibition at 1 µM (FES): 0%
- inhibition at 1 µM (FLT4): 0%
- inhibition at 1 µM (GCN2(Kin.Dom.2,S808G)): 0%
- inhibition at 1 µM (HCK): 4%
- inhibition at 1 µM (KIT(V559D)): 0%
- inhibition at 1 µM (LATS2): 14%
- inhibition at 1 µM (MST1): 5%
- inhibition at 1 µM (MYO3B): 15%
- inhibition at 1 µM (PDPK1): 0%
- inhibition at 1 µM (PIK4CB): 12%
- inhibition at 1 µM (PIM1): 2%
- inhibition at 1 µM (PKN1): 5%
Structure (SMILES): CNS(=O)(=O)c1ccc(N(C)C)c(Nc2nc(C)nc3cc(OC)c(OC)cc23)c1 [compound 15, 3-((6,7-dimethoxy-2-methylquinazolin-4-yl)amino)-4-(dimethylamino)-N-methylbenzenesulfonamide]
